In patent US20120190752A1, “EXO-S-MECAMYLAMINE METHOD, USE, AND COMPOUND FOR TREATMENT” (Targacept Inc., priority 2009, published 2012):

System: subjects with major depressive disorder (MDD) who were inadequate responders to citalopram
Assay: Individual MADRS factor (subscale) scores, exploratory analysis
Format: in vivo, human
Protocol: In more detail, a multi-center double-blind, randomized, placebo-controlled, parallel group, flexible dose titration study of TC-5214 as adjunctive therapy in subjects with major depressive disorder (MDD) who were inadequate responders to citalopram was conducted in centers in the US and India. The study consisted of a screening period, baseline/washout period, open-label phase, double-blind phase, and a follow-up visit. Subject participation in the study could continue for up to 16 weeks of treatment. Following a washout period of up to 28 days for other antidepressants, subjects with MDD and a MADRS total score >/=28 and a Clinical Global Impression-Severity (CGI-S) score >/=4 were enrolled on Day 1 into an open-label citalopram-only phase of the study. This phase lasted 8 weeks, with citalopram (CIT) dose increased from a once-daily dose of 20 mg (Day 1 through Week 4) to 40 mg (Week 4 through Week 8). A total of 579 subjects entered the open-label citalopram phase. At Week 8, subjects who tolerated 40 mg CIT, but whose MADRS score was reduced <50% from baseline and no lower than 17, and CGI-S≧4, were considered inadequate responders. These subjects (n=270) were randomized in a double-blind fashion to receive either placebo or TC-5214-23 as add-on therapy to continued CIT. The double-blind phase of the study also lasted 8 weeks (Week 8 to Week 16). Study drug, TC-5214-23 or placebo, was started at 2 mg daily (1 mg twice per day [BID] dosing), added on to continuing CIT (40 mg PO qd). After 2 weeks of treatment, the dose of TC-5214 could be increased to 4 mg (2 mg BID) or continued unchanged, with up-titration based upon good tolerability and inadequate therapeutic response. After a further 2 weeks, the dose of TC-5214 could be increased again to 8 mg (4 mg BID) if judged appropriate by the investigator, based upon good tolerability and inadequate therapeutic response. At any time during the double-blind phase of the study, placebo or TC-5214-23 could be reduced to the previous dose level following the emergence of unacceptable adverse events (AEs). […] At this follow-up, any signs or symptoms of relapse were evaluated. If a subject was prematurely discontinued from the study between Week 8 and Week 16 for any reason, the investigator was to make every effort to perform all evaluations as per protocol, assuming the subject had reached the end of the double-blind add-on treatment phase. These evaluations were to be made as soon as possible and within 2 weeks of discontinuation. […] There was no meaningful difference in results as a function of age, gender, site, or smoking status. The exploratory analysis assessed the differences in the treatment groups in change from Week 8 (double-blind baseline) to Week 16 for each individual MADRS factor score.

[1] = ITT population, Week 8 (double-blind baseline) to Week 16

`CNC1(C)C2CCC(C2)C1(C)C` (stereo in doubt) [TC-5214, (S)—N,2,3,3-tetramethylnorbornan-2-amine] was tested, and the “MADRS item 1 Apparent Sadness: Adjusted Mean Change TC-5214—Placebo (SD)” value [1] was −0.88 (1.26), the “MADRS item 1 Apparent Sadness: Effect Size” value [1] was 0.70 and the “MADRS item 2 Reported Sadness: Adjusted Mean Change TC-5214—Placebo (SD)” value [1] was −0.88 (1.28). For the same compound, the “MADRS item 2 Reported Sadness: Effect Size” value [1] was 0.69, the “MADRS item 3 Inner Tension: Adjusted Mean Change TC-5214—Placebo (SD)” value [1] was −0.79 (1.13) and the “MADRS item 3 Inner Tension: Effect Size” value [1] was 0.70. The “MADRS item 4 Reduced Sleep: Adjusted Mean Change TC-5214—Placebo (SD)” value [1] was −0.99 (1.40), the “MADRS item 4 Reduced Sleep: Effect Size” value [1] was 0.71 and the “MADRS item 5 Reduced Appetite: Adjusted Mean Change TC-5214—Placebo (SD)” value [1] was −0.76 (1.30). For the same compound, the “MADRS item 5 Reduced Appetite: Effect Size” value [1] was 0.58, the “MADRS item 6 Concentration Difficulties: Adjusted Mean Change TC-5214—Placebo (SD)” value [1] was −0.70 (1.20) and the “MADRS item 6 Concentration Difficulties: Effect Size” value [1] was 0.58. For the same compound, the “MADRS item 7 Lassitude: Adjusted Mean Change TC-5214—Placebo (SD)” value [1] was −0.75 (1.20), the “MADRS item 7 Lassitude: Effect Size” value [1] was 0.63 and the “MADRS item 8 Inability to Feel: Adjusted Mean Change TC-5214—Placebo (SD)” value [1] was −0.76 (1.25). For the same compound, the “MADRS item 8 Inability to Feel: Effect Size” value [1] was 0.61, the “MADRS item 9 Pessimistic Thoughts: Adjusted Mean Change TC-5214—Placebo (SD)” value [1] was −0.74 (1.18) and the “MADRS item 9 Pessimistic Thoughts: Effect Size” value [1] was 0.63. The “MADRS item 10 Suicidal Thoughts: Adjusted Mean Change TC-5214—Placebo (SD)” value [1] was −0.29 (0.61), the “MADRS item 10 Suicidal Thoughts: Effect Size” value [1] was 0.48 and the “each MADRS subscale score change from baseline compared with placebo” value (ITT, result in words) was “statistically significant decreases (improvements)”.
